Biological target: Integrin alpha-4/beta-1 (Homo sapiens, UniProt P05556+P13612)
Test: Inhibition of VCAM (vascular cell adhesion molecule) adhesion to alpha4-beta1 integrin of leukocyte cells
Type: functional, cell-based

Integrin alpha-4/beta-1, sequence (P05556 whole entry): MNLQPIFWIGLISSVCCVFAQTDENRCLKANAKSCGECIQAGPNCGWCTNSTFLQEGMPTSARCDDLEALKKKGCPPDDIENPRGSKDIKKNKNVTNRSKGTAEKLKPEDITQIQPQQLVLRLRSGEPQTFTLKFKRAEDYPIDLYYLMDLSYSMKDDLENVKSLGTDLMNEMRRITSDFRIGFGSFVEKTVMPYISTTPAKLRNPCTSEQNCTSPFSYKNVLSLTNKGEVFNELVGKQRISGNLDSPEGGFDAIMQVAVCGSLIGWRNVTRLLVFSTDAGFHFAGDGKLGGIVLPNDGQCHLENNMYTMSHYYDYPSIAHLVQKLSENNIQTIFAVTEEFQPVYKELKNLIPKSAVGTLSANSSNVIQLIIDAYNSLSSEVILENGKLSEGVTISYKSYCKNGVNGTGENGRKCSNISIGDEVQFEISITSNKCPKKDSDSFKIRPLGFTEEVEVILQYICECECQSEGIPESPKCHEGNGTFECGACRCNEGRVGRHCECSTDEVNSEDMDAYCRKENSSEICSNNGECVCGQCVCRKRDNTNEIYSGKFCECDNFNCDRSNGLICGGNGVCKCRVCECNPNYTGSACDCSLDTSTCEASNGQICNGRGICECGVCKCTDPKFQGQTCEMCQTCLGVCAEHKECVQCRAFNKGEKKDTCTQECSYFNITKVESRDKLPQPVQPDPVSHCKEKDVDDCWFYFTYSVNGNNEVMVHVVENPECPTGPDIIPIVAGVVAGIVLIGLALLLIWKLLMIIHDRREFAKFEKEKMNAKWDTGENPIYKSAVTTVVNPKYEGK
Integrin alpha-4/beta-1, sequence (P13612 whole entry): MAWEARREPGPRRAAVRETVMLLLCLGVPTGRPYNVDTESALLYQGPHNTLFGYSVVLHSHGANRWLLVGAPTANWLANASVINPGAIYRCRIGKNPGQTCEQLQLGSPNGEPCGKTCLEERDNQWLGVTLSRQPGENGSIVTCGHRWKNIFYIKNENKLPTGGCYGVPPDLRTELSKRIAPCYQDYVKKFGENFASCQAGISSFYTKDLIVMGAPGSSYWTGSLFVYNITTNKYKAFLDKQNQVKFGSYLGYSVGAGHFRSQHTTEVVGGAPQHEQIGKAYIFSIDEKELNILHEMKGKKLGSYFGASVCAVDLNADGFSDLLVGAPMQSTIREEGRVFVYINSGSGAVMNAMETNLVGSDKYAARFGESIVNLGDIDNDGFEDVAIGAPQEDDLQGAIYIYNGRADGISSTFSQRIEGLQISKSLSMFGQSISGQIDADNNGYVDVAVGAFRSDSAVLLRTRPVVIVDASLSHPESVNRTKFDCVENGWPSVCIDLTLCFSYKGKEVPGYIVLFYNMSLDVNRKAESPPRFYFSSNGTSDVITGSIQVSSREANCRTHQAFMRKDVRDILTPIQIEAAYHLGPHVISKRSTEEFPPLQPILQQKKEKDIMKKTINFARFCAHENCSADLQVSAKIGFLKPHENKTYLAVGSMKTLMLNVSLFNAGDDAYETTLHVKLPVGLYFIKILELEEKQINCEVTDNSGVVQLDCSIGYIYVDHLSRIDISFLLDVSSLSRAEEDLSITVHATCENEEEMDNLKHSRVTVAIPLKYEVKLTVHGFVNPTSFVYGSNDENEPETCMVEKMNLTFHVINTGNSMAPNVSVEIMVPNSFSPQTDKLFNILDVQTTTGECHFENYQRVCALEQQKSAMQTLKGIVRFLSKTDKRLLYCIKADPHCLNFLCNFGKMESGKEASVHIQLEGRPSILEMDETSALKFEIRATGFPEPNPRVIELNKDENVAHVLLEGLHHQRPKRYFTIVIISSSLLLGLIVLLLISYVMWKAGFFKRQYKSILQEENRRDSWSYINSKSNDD

| Structure (SMILES) | IC50 |
| --- | --- |
| O=C(O)[C@H](CSSCCNC(=O)C12CC3CC(CC(C3)C1)C2)NC(=O)C12CC3CC(CC(C3)C1)C2 | 4100 nM |
| O=C(O)C[C@H]1CN2CCCC[C@H]2C(=O)N[C@H](C(=O)O)CSSC[C@H](NC(=O)C23CC4CC(CC(C4)C2)C3)C(=O)N1 | 12 nM |
| O=C(O)C[C@H]1CN2CSC[C@H]2C(=O)N[C@H](C(=O)O)CSSC[C@H](NC(=O)C23CC4CC(CC(C4)C2)C3)C(=O)N1 | 47 nM |
| O=C(O)[C@H](CSSC[C@H](NC(=O)C12CC3CC(CC(C3)C1)C2)C(=O)O)NC(=O)C12CC3CC(CC(C3)C1)C2 | 7300 nM |
| COC(=O)[C@H](CSSC[C@H](NC(=O)C12CC3CC(CC(C3)C1)C2)C(=O)O)NC(=O)C12CC3CC(CC(C3)C1)C2 | 5100 nM |
| COC(=O)[C@H](CSSC[C@H](NC(=O)[C@@H]1CCCN1C(C)=O)C(=O)O)NC(=O)C12CC3CC(CC(C3)C1)C2 | 25200 nM |
| CC(=O)N1CCC[C@H]1C(=O)N[C@@H](CSSCCNC(=O)C12CC3CC(CC(C3)C1)C2)C(=O)O | 2340 nM |
| COC(=O)[C@H](CSSC[C@H](NC(=O)C12CC3CC(CC(C3)C1)C2)C(=O)OC)NC(=O)C12CC3CC(CC(C3)C1)C2 | > 800000 nM |

Next, values leading:

| IC50 | Structure (SMILES) |
| --- | --- |
| 280 nM | CC(=O)N1CSC[C@H]1C(=O)N[C@@H](CSSCCNC(=O)C12CC3CC(CC(C3)C1)C2)C(=O)O |
| 170 nM | O=C(O)C[C@H]1CN2CCC[C@H]2C(=O)N[C@H](C(=O)O)CSSC[C@H](NC(=O)C23CC4CC(CC(C4)C2)C3)C(=O)N1 |
| 425 nM | CC(=O)N1CCCC[C@H]1C(=O)N[C@@H](CSSCCNC(=O)C12CC3CC(CC(C3)C1)C2)C(=O)O |
| 330 nM | C[C@H]1CN2CCC[C@H]2C(=O)N[C@H](C(=O)O)CSSC[C@H](NC(=O)C23CC4CC(CC(C4)C2)C3)C(=O)N1 |

— ChEMBL document CHEMBL1133362, “Discovery and evaluation of potent, cysteine-based alpha4beta1 integrin antagonists” (Bioorg Med Chem Lett, 2000)
